# Ends that are not written are not given here. * marks the point of attachment. Cam = NC(=O)C*
# How the values were obtained:
# [1] = system: NOD mouse; assay: Rate of type 1 diabetes and final blood glucose in treated female NOD/ShiLtJ mice; type: in vivo; details: for rate of diabetes: EGCG IP in saline from age 3-5 days
# Description: Mouse care: NOD/ShiLtJ mice were from The Jackson Laboratory (Bar Harbor, ME, USA). Mice were housed under standard conditions (20-24° C., humidity 30-70%, lighting regimen 12 h light/12 h dark) in the University of Wisconsin Biomedical Research Model Service that is a specific pathogen free level 1 facility. […] Mice had access to acidified water or water containing a chemical and/or green tea ad libitum. All procedures were approved by the Research Animal Resources and Compliance veterinary care authority of the University of Wisconsin, Madison.
# Mouse treatments: Mice were given chemicals by intraperitoneal injection and/or by gavage and/or in drinking water. Water-soluble chemicals were administered in a solution of sodium chloride adjusted to have a final osmolality of 0.5-0.9%. Lipid soluble chemicals were dissolved in olive oil, peanut oil, corn oil, Mazola® oil or canola oil.
# Starting at age 2 to 5 days mice were given injections on every third or fourth day for 2 to 4 weeks (usually 2 to 2.5 weeks) for the first 4 or 6 injections, and thereafter twice per week on Mondays and Thursdays until up to age 100 days. In some instances, pregnant and nursing mice were given chemicals in drinking water starting at about the middle or late pregnancy continuing during nursing and also continuing for various lengths of time to the offspring with or without additional intraperitoneal injections of chemicals. In other instances, chemicals were delivered by intraperitoneal injection into pregnant mice and continued after delivery into the mouse pups. Chemicals, for example EGCG, were also delivered in drinking water starting before birth to the pregnant mouse mother and/or continuing and/or starting ad libitum to the mice after birth usually until at least 100 days of age or throughout life.
# Chemicals given in distilled drinking water were green tea (as a source of EGCG and other catechins) (Lipton® 100% Natural Green Tea). […] The tea water was given alone and also in combination with acetaminophen 2 g/l in the same water.
# In most cases nondiabetic mice were euthanized at 40-41 weeks of age. Statistical significances of the frequencies of diabetes in the mice receiving test treatments were compared to the rates of diabetes in mice receiving control treatments and were calculated with the Chi square test and with the Chi square test with Yate's correction.
# In most of the studies, control solutions and the other treatments were administered to the mice until they were 100 days old. Mice without diabetes were euthanized at 40-41 weeks of age. Diabetic mice were euthanized when their blood glucose levels reached a level that met the criteria for diabetes.
# Administration of water-soluble chemicals serving as controls to NOD mice: Control solutions were the vehicles in which chemicals were dissolved. Control solutions were usually administered to mouse litters from the same shipments as the litters receiving test chemicals and/or litters from the same parents as the litters receiving test chemicals and were administered during the same month and year as treatments to the litters receiving test treatments. Statistical probabilities between the rates of diabetes in the litters receiving test treatments were compared to litters simultaneously receiving control treatments.
# [2] = system: NOD mouse; details: Fu et al.: 1 mM EGCG in drinking water, given after age 5 weeks; 12 mice; 32 weeks of age; cited from earlier work
# [3] = system: mice; details: mouse, in vivo
# Description: Intraperitoneal injections of water-soluble chemicals were given in normal saline (0.9% sodium chloride).
# [4] = 20 ug, then 40 μg after 3 weeks, IP in 5% DMSO/95% saline
# [5] = 40 μg twice/week for two weeks then once per week until 14 weeks old, IP in 5% DMSO/95% saline
# [6] = hydroxytyrosol alone, 325 μmol/kg first 5 weeks, 650 thereafter, IP in ¾ saline
# [7] = 100 μmol/kg IP in saline, age 34 weeks
# [8] = 200 μmol/kg in ¾ saline, IP til wean (21 days), then gavage until 55-62 days, age 35 weeks
# [9] = 2000-3500 μmol/kg IP in olive oil, age 40 weeks
# [10] = 2000-3500 μmol/kg IP in peanut oil
# [11] = started post wean, 3100-4000 μmol/kg IP in olive oil
# [12] = menaquinone-4 200 μmol/kg IP in olive oil, age 40 weeks
# [13] = menaquinone-4 200 μmol/kg IP in peanut oil
# [14] = 200 μmol/kg IP in saline, age 40 weeks
# [15] = 1500 μmol/kg in olive oil, IP til wean (21 days), then gavage until 98 days, age 40 weeks
# [16] = 2000 μmol/kg IP in olive oil, age 40 weeks
# [17] = pure oleocanthal (oil) 50 μmol/kg, no carrier, IP til wean, then gavage
# [18] = quercetin 200 μmol/kg IP in olive oil, age 40 weeks
# [19] = quercetin 200 μmol/kg IP in peanut oil
# [20] = 50 μmol/kg IP in saline from age 3-5 days until 59-63 or 93-95 days, age 41-44 weeks
# [21] = 1 mM in drinking water, oral, from 1-4 days after birth
# [22] = 60 day treatment (stopped at age 59-60 days), 50 μmol/kg IP in saline, age 40 weeks
# [23] = IP 50 μmol/kg in saline til wean (21 days), then gavage 100 μmol/kg until 97-98 days
# [24] = started post wean (21 days) until 99 days, 50 μmol/kg IP in ¾ saline
# [25] = 20 μmol/kg IP in saline until age 58-61 days, age 34 weeks
# [26] = 20 ug once per week for first 3 weeks, then 40 μg once per week until 100-110 days, IP in 5% DMSO/95% saline, age 40 weeks
molecule,measurement,setting,value
VEALYLVCGERG (VEALYLVC(Cam)GERG) [Ins B12-23 19CAM],Diabetes (%),[1]; [4],47%
same,Final Blood Glucose (mean ± SE) diabetic,[1]; [4],679 ± 32 mg glucose/dl
same,Final Blood Glucose (mean ± SE) non-diabetic,[1]; [4],160 ± 6 mg glucose/dl
"VEALYLVCEGEEG (VEALYLVC(Cam)EGEEG) [Ins B12-23 19CAM22R-E, insulin B12-23 mimotope peptide treated with iodoacetamide to carboxyamidomethylate the cysteine residue]",Diabetes (%),[1]; [5],54%
same,Final Blood Glucose (mean ± SE) diabetic,[1]; [5],569 ± 70 mg glucose/dl
same,Final Blood Glucose (mean ± SE) non-diabetic,[1]; [5],166 ± 7 mg glucose/dl
"OCCc1ccc(O)c(O)c1 [Hydroxytyrosol, 4-(2-hydroxyethyl)benzene-1,2-diol]",Diabetes (%),[1]; [6],59%
same,Final Blood Glucose (mean ± SE) diabetic,[1]; [6],672 ± 24 mg glucose/dl
same,Final Blood Glucose (mean ± SE) non-diabetic,[1]; [6],173 ± 12 mg glucose/dl
"O=C(O)/C=C/c1ccc(O)c(O)c1 [Caffeic Acid, reference compound]",Diabetes (%),[1]; [7],65%
same,Final Blood Glucose (mean ± SE) diabetic,[1]; [7],611 ± 32 mg glucose/dl
same,Final Blood Glucose (mean ± SE) non-diabetic,[1]; [7],178 ± 15 mg glucose/dl
"C[S+]([O-])CCCCN=C=S (stereo not shown) [Sulforaphane, 1-Isothiocyanato-4-(methanesulfinyl)butane]",Diabetes (%),[1]; [8],42%
same,Final Blood Glucose (mean ± SE) diabetic,[1]; [8],619 ± 37 mg glucose/dl
same,Final Blood Glucose (mean ± SE) non-diabetic,[1]; [8],154 ± 7 mg glucose/dl
"CC1=C(C/C=C(\C)CCC[C@H](C)CCC[C@H](C)CCCC(C)C)C(=O)c2ccccc2C1=O [Phylloquinone, reference compound]",Diabetes (%),[1]; 110 μmol/kg IP in olive oil,38%
same,Final Blood Glucose (mean ± SE) diabetic,[1]; 110 μmol/kg IP in olive oil,648 ± 37 mg glucose/dl
same,Final Blood Glucose (mean ± SE) non-diabetic,[1]; 110 μmol/kg IP in olive oil,174 ± 5 mg glucose/dl
same,Diabetes (%),[1]; [9],21%
same,Final Blood Glucose (mean ± SE) diabetic,[1]; [9],647 ± 27 mg glucose/dl
same,Final Blood Glucose (mean ± SE) non-diabetic,[1]; [9],163 ± 5 mg glucose/dl
same,Diabetes (%),[1]; [10],40%
same,Final Blood Glucose (mean ± SE) diabetic,[1]; [10],646 ± 40 mg glucose/dl
same,Final Blood Glucose (mean ± SE) non-diabetic,[1]; [10],167 ± 10 mg glucose/dl
same,Diabetes (%),[1]; [11],36%
same,Final Blood Glucose (mean ± SE) diabetic,[1]; [11],677 ± 20 mg glucose/dl
same,Final Blood Glucose (mean ± SE) non-diabetic,[1]; [11],156 ± 6 mg glucose/dl
"CC(C)=CCC/C(C)=C/CC/C(C)=C/CC/C(C)=C\CC1=C(C)C(=O)c2ccccc2C1=O [Menaquinone-4, 3-methyl-2-[(2Z,6E,10E)-3,7,11,15-tetramethylhexadeca-2,6,10,14-tetraenyl]naphthalene-1,4-dione, reference compound]",Diabetes (%),"[1]; 200 μmol/kg in olive oil, IP til wean (21 days), then gavage until 98 days, mice 24-30 weeks old, study ongoing",25%
same,Diabetes (%),"[1]; 30 day treatment, 200 μmol/kg IP in olive oil, mice 20-40 weeks old, study ongoing",32%
same,Diabetes (%),"[1]; 60 day treatment, 200 μmol/kg IP in olive oil, mice 34-36 weeks old, study ongoing",4%
same,Diabetes (%),[1]; [12],0%
same,Final Blood Glucose (mean ± SE) non-diabetic,[1]; [12],172 ± 15 mg glucose/dl
same,Diabetes (%),[1]; [13],50%
same,Final Blood Glucose (mean ± SE) diabetic,[1]; [13],706 ± 25 mg glucose/dl
same,Final Blood Glucose (mean ± SE) non-diabetic,[1]; [13],164 ± 9 mg glucose/dl
"CC(S)C(=O)NCC(=O)O (stereo not shown) [Tiopronin, reference compound]",Diabetes (%),[1]; [14],74%
same,Final Blood Glucose (mean ± SE) diabetic,[1]; [14],685 ± 19 mg glucose/dl
same,Final Blood Glucose (mean ± SE) non-diabetic,[1]; [14],175 ± 12 mg glucose/dl
"CC1=C(C=O)C(C)(C)CC=C1 [Safranal, 2,6,6-Trimethylcyclohexa-1,3-diene-1-carbaldehyde]",Diabetes (%),[1]; [15],36%
same,Final Blood Glucose (mean ± SE) diabetic,[1]; [15],595 ± 36 mg glucose/dl
same,Final Blood Glucose (mean ± SE) non-diabetic,[1]; [15],172 ± 8 mg glucose/dl
same,Diabetes (%),[1]; [16],32%
same,Final Blood Glucose (mean ± SE) diabetic,[1]; [16],606 ± 60 mg glucose/dl
same,Final Blood Glucose (mean ± SE) non-diabetic,[1]; [16],159 ± 5 mg glucose/dl
C/C=C(/C=O)[C@@H](CC=O)CC(=O)OCCc1ccc(O)cc1 [Oleocanthal (oil)],Diabetes (%),[1]; [17],35%
same,Final Blood Glucose (mean ± SE) diabetic,[1]; [17],560 ± 61 mg glucose/dl
same,Final Blood Glucose (mean ± SE) non-diabetic,[1]; [17],178 ± 7 mg glucose/dl
O=c1c(O)c(-c2ccc(O)c(O)c2)oc2cc(O)cc(O)c12 [Quercetin],Diabetes (%),[1]; [18],26%
same,Final Blood Glucose (mean ± SE) diabetic,[1]; [18],610 ± 56 mg glucose/dl
same,Final Blood Glucose (mean ± SE) non-diabetic,[1]; [18],178 ± 7 mg glucose/dl
same,Diabetes (%),[1]; [19],47%
same,Final Blood Glucose (mean ± SE) diabetic,[1]; [19],651 ± 25 mg glucose/dl
same,Final Blood Glucose (mean ± SE) non-diabetic,[1]; [19],171 ± 11 mg glucose/dl
"O=C(O[C@@H]1Cc2c(O)cc(O)cc2O[C@@H]1c1cc(O)c(O)c(O)c1)c1cc(O)c(O)c(O)c1 [EGCG, (2R,3R)-5,7-Dihydroxy-2-(3,4,5-trihydroxyphenyl)-3,4-dihydro-2H-1-benzopyran-3-yl 3,4,5-trihydroxybenzoate]",Diabetes (%),[1]; [20],35%
same,Final Blood Glucose (mean ± SE) diabetic,[1]; [20],685 ± 34 mg glucose/dl
same,Final Blood Glucose (mean ± SE) non-diabetic,[1]; [20],159 ± 5 mg glucose/dl
same,Diabetes (%),[1]; [21],40%
same,Final Blood Glucose (mean ± SE) diabetic,[1]; [21],708 ± 24 mg glucose/dl
same,Final Blood Glucose (mean ± SE) non-diabetic,[1]; [21],172 ± 4 mg glucose/dl
same,Diabetes (%),[1]; [22],33%
same,Final Blood Glucose (mean ± SE) diabetic,[1]; [22],663 ± 57 mg glucose/dl
same,Final Blood Glucose (mean ± SE) non-diabetic,[1]; [22],145 ± 4 mg glucose/dl
same,rate of diabetes,"[1]; treatment ending after 59-63 days, age 41-44 weeks",38%
same,rate of diabetes,"[1]; treatment ending after 93-95 days, age 41-44 weeks",31%
same,Diabetes (%),[1]; [23],50%
same,Final Blood Glucose (mean ± SE) diabetic,[1]; [23],624 ± 33 mg glucose/dl
same,Final Blood Glucose (mean ± SE) non-diabetic,[1]; [23],200 ± 12 mg glucose/dl
same,Diabetes (%),[1]; [24],29%
same,Final Blood Glucose (mean ± SE) diabetic,[1]; [24],605 ± 59 mg glucose/dl
same,Final Blood Glucose (mean ± SE) non-diabetic,[1]; [24],166 ± 4 mg glucose/dl
same,Diabetes (%),"[1]; started post wean, 250 μmol/kg by gavage in water, mice 24-27 weeks old, study ongoing",25%
same,mice that had diabetes,[2],25%
"COC1=C(OC)C(=O)C(C)=CC1=O [CoQ0, 2,3-dimethoxy-5-methyl-1,4-benzoquinone, reference compound]",Diabetes (%),[1]; [25],83%
same,Final Blood Glucose (mean ± SE) diabetic,[1]; [25],649 ± 53 mg glucose/dl
same,Final Blood Glucose (mean ± SE) non-diabetic,[1]; [25],183 ± 28 mg glucose/dl
same,toxicity,[3],toxicity to the mice
"SHLVEALYLVCGEEG (SHLVEALYLVC(Cam)GEEG) [Ins B9-23 19CAM22R-E, insulin B chain 9-23 mimotope peptide treated with iodoacetamide to carboxyamidomethylate the cysteine residue at position 19]",Diabetes (%),[1]; [26],17%
same,Final Blood Glucose (mean ± SE) diabetic,[1]; [26],681 ± 82 mg glucose/dl
same,Final Blood Glucose (mean ± SE) non-diabetic,[1]; [26],159 ± 6 mg glucose/dl

# From patent US20260053902A1, “COMPOSITIONS AND METHODS FOR REDUCING THE RATE OF TYPE 1 DIABETES” (Wisconsin Alumni Research Foundation, priority 2023, published 2026)
